Test results reported in paper PMC10223019, “Preclinical Evaluation of a PSMA-Targeting Homodimer with an Optimized Linker for Imaging of Prostate Cancer” (Molecules, 2023).
Where “and” joins values, the source holds several entries; their conditions need not be identical. Equal values may be shown once.

What was measured:
[1] = molecular target: T1, Recombinant human PSMA (rhPSMA) (Homo sapiens, UniProt Q04609); assay: NAALADase assay (competitive inhibition, Amplex Red glutamate readout); assay type: biochemical; conditions: for IC50: rhPSMA, substrate Ac-Asp-Glu, 1 h 37 °C
T1 construct: purchased R&D systems, Abingdon, UK
T1 sequence (Q04609 whole entry): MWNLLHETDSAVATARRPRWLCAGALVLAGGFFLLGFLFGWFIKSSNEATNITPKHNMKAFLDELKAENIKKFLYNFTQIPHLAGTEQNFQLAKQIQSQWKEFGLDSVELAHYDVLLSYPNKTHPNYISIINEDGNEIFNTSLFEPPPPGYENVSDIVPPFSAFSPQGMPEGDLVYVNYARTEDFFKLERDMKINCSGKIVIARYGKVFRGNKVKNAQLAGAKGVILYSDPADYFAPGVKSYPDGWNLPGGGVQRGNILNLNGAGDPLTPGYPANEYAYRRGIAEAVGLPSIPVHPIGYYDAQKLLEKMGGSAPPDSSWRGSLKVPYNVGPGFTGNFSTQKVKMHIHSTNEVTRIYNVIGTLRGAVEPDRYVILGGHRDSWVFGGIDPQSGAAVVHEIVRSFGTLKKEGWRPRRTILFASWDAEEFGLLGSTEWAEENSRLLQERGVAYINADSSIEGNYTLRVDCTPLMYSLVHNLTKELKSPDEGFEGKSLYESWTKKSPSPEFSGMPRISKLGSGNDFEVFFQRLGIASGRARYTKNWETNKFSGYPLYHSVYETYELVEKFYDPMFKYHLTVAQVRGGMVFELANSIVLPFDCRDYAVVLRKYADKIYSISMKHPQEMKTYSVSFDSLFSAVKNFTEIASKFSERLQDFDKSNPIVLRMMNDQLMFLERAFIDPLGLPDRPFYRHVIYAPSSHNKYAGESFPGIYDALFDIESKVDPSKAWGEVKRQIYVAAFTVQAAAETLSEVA
Procedure: Recombinant human PSMA (rhPSMA; R&D systems, Abingdon, UK) was diluted in assay buffer (50 mM HEPES, 0.1 M NaCl, pH 7.5) to 0.4 μg/mL. The substrate Ac–Asp–Glu (40 μM) was mixed with the synthesized derivatives and with a reference (PSMA-617) at concentrations ranging from 10^−6 to 10^−13 M in a final volume of 12.5 μL assay buffer. The mixtures were combined with 12.5 μL of the rhPSMA solution and incubated for 1 h at 37 °C in 384-well black polystyrene microplates (ThermoFisher, Bleiswijk, The Netherlands). The amount of glutamate released was measured by incubating with 25 μL of a working solution of the Amplex Red glutamic acid kit (ThermoFisher, Bleiswijk, The Netherlands) at 37 °C for 30 min. Fluorescence was measured with a HIDEX Sense Optical System (Goedereede, The Netherlands) with excitation at 535 nm and emission at 590 nm. Data were normalized and analyzed using a one-site total binding regression with GraphPad Prism v9.0 (GraphPad Software, San Diego, CA, USA).

[2] = LogD7.4 by shake-flask method (PBS/n-octanol); assay type: physicochemical; conditions: PBS/n-octanol (1:1 v/v); LogD7.4, PBS pH 7.4/n-octanol, indium-111 labeled compound; read-out: LogD
Procedure: The distribution coefficients (LogD7.4 values) were determined by a shake-flask method, in which 2 μL (~0.5 MBq) of the labeling solution ([^111In]In-22 or [^111In]In-30) were added to an Eppendorf tube containing 1 mL of PBS (0.01 M, pH 7.4)/n-octanol (v/v, 1:1). After vigorous vortexing, the solution was centrifuged at 2500× g for 15 min for phase separation. Samples (3 × 10 μL) of the two phases were taken out and measured in a gamma counter. LogD7.4 values were calculated by using the following equation: LogD7.4 = log [(counts in octanol phase)/(counts in aqueous phase)] and the experiment was performed in triplicate.

[3] = Stability in mouse serum, radio-HPLC; assay type: in vitro ADME; conditions: 24 h post-incubation, 37 °C, indium-111 labeled, intact fraction
Procedure: [^111In]In-22 or [^111In]In-30 (~35 MBq, 70 µL) was mixed with 330 μL of mouse serum and incubated at 37 °C for up to 24 h. After 1, 4, and 24 h incubation, 50 μL of the mouse serum solution was added to a separate vial containing 50 µL of acetonitrile. The sample was centrifuged at 5000× g for 20 min. The supernatant was analyzed by radio-HPLC.

[4] = Stability in phosphate-buffered saline (PBS), radio-HPLC; assay type: physicochemical; conditions: 24 h post-incubation, 37 °C, indium-111 labeled, intact fraction
Procedure: [^111In]In-22 or [^111In]In-30 (~10 MBq, 20 µL) was mixed with 80 μL of PBS (0.01 M, pH 7.4) and incubated at 37 °C for up to 24 h. A sample of the PBS solution was loaded directly onto the radio-HPLC at 1, 4, and 24 h post-incubation.

[5] = system: PSMA expressing LS174T cells; assay: Internalization and cell uptake assay; assay type: cell-based, human; conditions: 2 h 37 °C
Procedure: LS174T human colon carcinoma cells transfected with human PSMA were obtained from Dr. Sandra Heskamp (Radboud UMC, Nijmegen). Cells were cultured in RPMI-1640 media supplemented with 2 mM glutamine, 10% fetal bovine serum (FBS) and 0.3 mg/mL G418 (Geneticin, Sigma Aldrich, St. Louis, MO, USA).
Cells were seeded (1.2 × 10^6 cells/well) and cultured to confluency for 24 h prior to experiments. We prepared 10^−9 M solutions of [^111In]In-PSMA-617, [^111In]In-22, and [^111In]In-30 in internalization media (RPMI, 20 mM HEPES, 1% BSA, pH 7.4). The media were removed from each well, and they were rinsed twice with PBS at rt. 2 mL of the radioactive compound was then added to each well and incubated at 37 °C for 2 h. For the internalization assay, the media containing radioactive compound were removed, and each well was washed twice with cold PBS. A total of 1 mL of Glycine buffer (50 mM glycine, 100 mM NaCl, pH 2.8) was added immediately and incubated for 10 min at rt. The glycine wash was then collected into counting tubes (membrane-bound fraction). An extra wash was performed and collected in the same tubes. A total of 1 mL of NaOH (1 M) was then added to each tube and left for 15 min at rt. The lysate (internalized fraction) was then collected in separate counting tubes, together with one extra NaOH wash. Data were normalized to 1,000,000 cells and percentage added dose.

[6] = system: BALB/c nude mice bearing LS174T PSMA-positive tumor xenografts; assay: Ex vivo biodistribution studies; assay type: in vivo; conditions: 24 h p.i.
Procedure: Animal experiments were performed in 8–10 weeks old male BALB/c nude mice (Janvier Labs, Le Genest-Saint-Isle, France). Animals were housed in individually ventilated cages (Blue line IVC, 4 mice per cage) under nonsterile standard conditions with cage enrichment present and free access to chlorophyll-free animal chow (Sniff GmbH, Soest, Germany) and water and acclimated for 1 week before experiments. Mice were subcutaneously inoculated with 4.0 × 10^6 LS174T cells in the right flank, diluted in 100 μL of cell suspension. Seven days after tumor cell inoculation, when xenografts were approximately 0.2–0.3 cm^3, the tracers were injected intravenously via the tail vein. All experiments were approved by the institutional Animal Welfare Committee and were conducted in accordance with the guidelines of the Revised Dutch Act on Animal Experimentation (WOD).
Mice were intravenously injected with ~1 nmol of either [^111In]In-PSMA-617, [^111In]In-22 or [^111In]In-30 with molar activity of 5 MBq/nmol for ex vivo biodistribution studies. Mice (n = 4/timepoint) were euthanized by cervical dislocation at 1, 4, and 24 h p.i. A block group was included, and mice were euthanized at 4 h p.i. Organs were collected in tubes and counted in the gamma counter, where the calibration factor was determined by measuring different known activities of indium-111.

Structure (SMILES)	IC50 [1]	other results
NCCCCCC(=O)NCCCCC(NC(=O)NC(CCC(=O)O)C(=O)O)C(=O)O (centres unmarked) [Compound 1]	9.86 ± 1.7 nM	–
NCCC(=O)NCCCCCC(=O)NCCCC[C@H](NC(=O)N[C@@H](CCC(=O)O)C(=O)O)C(=O)O [Compound 2, EuK(Ahx-Ala)]	23.1 ± 3.1 nM	–
NCCC(=O)NCCC(=O)NCCCCCC(=O)NCCCC[C@H](NC(=O)N[C@@H](CCC(=O)O)C(=O)O)C(=O)O [Compound 3]	20.1 ± 2.7 nM	–
N[C@@H](Cc1ccccc1)C(=O)NCCC(=O)NCCCCCC(=O)NCCCC[C@H](NC(=O)N[C@@H](CCC(=O)O)C(=O)O)C(=O)O [Compound 4]	2.86 ± 0.3 nM	–
CC(C)C[C@H](N)[C@@H](O)CC(=O)NCCC(=O)NCCCCCC(=O)NCCCC[C@H](NC(=O)N[C@@H](CCC(=O)O)C(=O)O)C(=O)O [Compound 5]	10.1 ± 3.2 nM	–
N[C@@H](Cc1ccccc1)C(=O)NCCCCCC(=O)NCCCC[C@H](NC(=O)N[C@@H](CCC(=O)O)C(=O)O)C(=O)O [Compound 6]	3.17 ± 0.5 nM	–
N[C@@H](Cc1ccccc1)C(=O)N[C@@H](Cc1ccccc1)C(=O)NCCCCCC(=O)NCCCC[C@H](NC(=O)N[C@@H](CCC(=O)O)C(=O)O)C(=O)O [Compound 7]	1.72 ± 0.4 nM	–
NCCC(=O)N[C@@H](Cc1ccccc1)C(=O)NCCCCCC(=O)NCCCC[C@H](NC(=O)N[C@@H](CCC(=O)O)C(=O)O)C(=O)O [Compound 8]	4.53 ± 0.4 nM	–
CC(C)C[C@H](N)[C@@H](O)CC(=O)N[C@@H](Cc1ccccc1)C(=O)NCCCCCC(=O)NCCCC[C@H](NC(=O)N[C@@H](CCC(=O)O)C(=O)O)C(=O)O [Compound 9]	7 ± 0.3 nM	–
CC(C)C[C@H](N)[C@@H](O)CC(=O)NCCCCCC(=O)NCCCC[C@H](NC(=O)N[C@@H](CCC(=O)O)C(=O)O)C(=O)O [Compound 10]	6.83 ± 0.5 nM	–
CC(C)C[C@H](NC(=O)[C@H](Cc1ccccc1)NC(=O)[C@@H](N)Cc1ccc(O)cc1)[C@@H](O)CC(=O)NCCCCCC(=O)NCCCC[C@H](NC(=O)N[C@@H](CCC(=O)O)C(=O)O)C(=O)O [Compound 17]	2.62 ± 0.4 nM	–
CC(C)C[C@H](NC(=O)[C@@H](Cc1ccccc1)NC(=O)[C@H](CC(=O)O)NC(=O)CCC(C(=O)O)N1CCN(CC(=O)O)CCN(CC(=O)O)CCN(CC(=O)O)CC1)[C@@H](O)CC(=O)NCCCCCC(=O)NCCCC[C@H](NC(=O)N[C@@H](CCC(=O)O)C(=O)O)C(=O)O (stereo partly drawn) [Compound 23, EuK(Ahx-Sta-D-Phe-Asp-DOTA-GA)]	–	logD [2]: -3.21 ± 0.07
CC(C)C[C@H](NC(=O)[C@@H](Cc1ccccc1)NC(=O)[C@H](CC(=O)O)NC(=O)CCC(C(=O)O)N1CCN(CC(=O)[O-])CCN(CC(=O)[O-])CCN(CC(=O)[O-])CC1)[C@@H](O)CC(=O)NCCCCCC(=O)NCCCC[C@H](NC(=O)N[C@@H](CCC(=O)O)C(=O)O)C(=O)O.[111In+3] (some centres unmarked) [[^111In]In-23]	–	Stability in Mouse Serum (%) [3]: > 90%; Stability in PBS (%) [4]: > 90%

Further lines, with some results ahead:

IC50 [1]	Structure (SMILES)	other results
6.5 ± 0.4 nM	CC(C)C[C@H](NC(=O)C[C@H](O)[C@@H](N)CC(C)C)[C@@H](O)CC(=O)NCCCCCC(=O)NCCCC[C@H](NC(=O)N[C@@H](CCC(=O)O)C(=O)O)C(=O)O [Compound 11]	–
6.15 ± 0.6 nM	CC(C)C[C@H](NC(=O)CCN)[C@@H](O)CC(=O)NCCCCCC(=O)NCCCC[C@H](NC(=O)N[C@@H](CCC(=O)O)C(=O)O)C(=O)O [Compound 13]	–
1.73 ± 0.7 nM	CC(C)C[C@H](NC(=O)[C@H](Cc1ccccc1)NC(=O)CN1CCN(CC(=O)O)CCN(CC(=O)O)CCN(CC(=O)O)CC1)[C@@H](O)CC(=O)NCCCCCC(=O)NCCCC[C@H](NC(=O)N[C@@H](CCC(=O)O)C(=O)O)C(=O)O [Compound 14]	–
2.1 ± 0.4 nM	CC(C)C[C@H](NC(=O)[C@H](Cc1ccccc1)NC(=O)[C@@H](N)CN)[C@@H](O)CC(=O)NCCCCCC(=O)NCCCC[C@H](NC(=O)N[C@@H](CCC(=O)O)C(=O)O)C(=O)O [Compound 15]	–
1.03 ± 0.5 nM	CC(C)C[C@H](NC(=O)[C@H](Cc1ccccc1)NC(=O)[C@@H](N)CC(=O)O)[C@@H](O)CC(=O)NCCCCCC(=O)NCCCC[C@H](NC(=O)N[C@@H](CCC(=O)O)C(=O)O)C(=O)O [Compound 16, EuK(Ahx-Sta-Phe-Asp)]	–
3.33 ± 0.4 nM	CC(C)C[C@H](NC(=O)[C@H](Cc1ccccc1)NC(=O)[C@@H](N)Cc1ccccc1)[C@@H](O)CC(=O)NCCCCCC(=O)NCCCC[C@H](NC(=O)N[C@@H](CCC(=O)O)C(=O)O)C(=O)O [Compound 18]	–
1.22 ± 0.3 nM	CC(C)C[C@H](NC(=O)[C@H](Cc1ccccc1)NC(=O)C[C@H](O)[C@@H](N)CC(C)C)[C@@H](O)CC(=O)NCCCCCC(=O)NCCCC[C@H](NC(=O)N[C@@H](CCC(=O)O)C(=O)O)C(=O)O [Compound 19]	–
1.66 nM and 1 to 1.6 nM	CC(C)C[C@H](NC(=O)[C@H](Cc1ccccc1)NC(=O)[C@H](CC(=O)O)NC(=O)CCC(C(=O)O)N1CCN(CC(=O)O)CCN(CC(=O)O)CCN(CC(=O)O)CC1)[C@@H](O)CC(=O)NCCCCCC(=O)NCCCC[C@H](NC(=O)N[C@@H](CCC(=O)O)C(=O)O)C(=O)O (stereo partly drawn) [Compound 22, EuK(Ahx-Sta-L-Phe-Asp-DOTA-GA)]	logD [2]: -3.26 ± 0.05; Stability in Mouse Serum (%) [3]: > 90%; Stability in PBS (%) [4]: > 90%; IC50 of 22 (L-Phe) relative to 23 (D-Phe) ([1]; comparison in words): two-fold better
0.9 ± 0.3 nM	O=C(O)CC[C@H](NC(=O)N[C@@H](CCCCNC(=O)[C@H](Cc1ccc2ccccc2c1)NC(=O)[C@H]1CC[C@H](CNC(=O)CN2CCN(CC(=O)O)CCN(CC(=O)O)CCN(CC(=O)O)CC2)CC1)C(=O)O)C(=O)O [PSMA-617, reference compound]	Internalized fraction as share of total uptake (internalization) [5]: 34.1%; Tumor-to-muscle (T/M) ratio [6]: 26
